# Like-named read-outs stand apart in the source and are kept apart here.
# What was measured:
# [1] = target: T1, E. coli CsgA (Escherichia coli, UniProt P28307); test: In vitro ThioflavinT assay of CsgA aggregation (CsgA ThT Assay); assay type: biochemical; conditions: for remaining activity at 25 µM: compound 25 μM; for remaining activity at 100 µM: compound 100 μM
# T1 construct: made in house; host or cells: E. coli NEB 3016 slyD::kan, pET11d
# Summary of the method: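 Purified C-terminal His-tagged CsgA, monomerised by desalting and 30-kDa filtration, at 2-20 μM with 20-40 μM ThT in 50 mM potassium phosphate pH 7.3, 1% DMSO, compounds 3.125-200 uM; room temperature, fluorescence (ex 438/em 495 nm) read every 15 min. Background-subtracted signal expressed as percent inhibition versus vehicle at 6-6.5 or 8-9 h, or as percent control AUC.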
# [2] = system: CsgA gene expression (csgBAC promoter-GFP reporter) in E. coli UTI89; test: In vitro live cell fluorescent reporter assay of CsgA transcription (Reporter Assay); assay type: cell-based; conditions: Escherichia coli
# Summary of the method: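 Compounds at 0.14–100 μM (1% DMSO final) incubated 20 h at 27 °C in YESCA broth with UTI89 carrying a single-copy GFP reporter under the csgBAC intergenic promoter region, inoculum OD600 0.003. Fluorescence normalized to vehicle wells gave IC50 and 50%-of-vehicle concentration; OD600 reduction >10% flagged growth impact.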
# [3] = read-out: CsgA ThT Assay (10 μM CsgA) % Control AUC at 1005 minutes, 25 μM (activity range), CsgA 10 μM, black plates, 1005 minutes, class symbol
# [4] = read-out: CsgA ThT Assay (10 μM CsgA) % Control AUC at 1005 minutes, 25 μM, mean AUC as % of DMSO control, CsgA 10 μM, black plates, 1005 minutes
# [5] = read-out: CsgA ThT Assay (10 μM CsgA) % Control AUC at 1005 minutes, 100 μM (activity range), CsgA 10 μM, black plates, 1005 minutes, class symbol
# [6] = read-out: CsgA ThT Assay (10 μM CsgA) % Control AUC at 1005 minutes, 100 μM, mean AUC as % of DMSO control, CsgA 10 μM, black plates, 1005 minutes
# [7] = read-out: Reporter Assay Abs IC50 (activity range), median Abs IC50 in the CsgA reporter assay, class symbol
# [8] = read-out: Reporter Assay Abs IC50 (μM), median Abs IC50 in the CsgA reporter assay, N/A = maximum expression reduction is <50% of control
# [9] = read-out: CsgA ThT Assay (2 μM CsgA) % Control Bmax 25 μM, activity range, class symbol, CsgA 2 μM, white plates
# [10] = read-out: CsgA ThT Assay (2 μM CsgA) % Control Bmax 25 μM, mean Bmax as percentage of DMSO control, CsgA 2 μM, white plates
# [11] = read-out: CsgA ThT Assay (2 μM CsgA) % Control Bmax 100 μM, activity range, class symbol, CsgA 2 μM, white plates
# [12] = read-out: CsgA ThT Assay (2 μM CsgA) % Control Bmax 100 μM, mean Bmax as percentage of DMSO control, CsgA 2 μM, white plates
# [13] = read-out: Reporter Assay Abs IC50, activity range, class symbol
# T1 sequence (P28307 23-151): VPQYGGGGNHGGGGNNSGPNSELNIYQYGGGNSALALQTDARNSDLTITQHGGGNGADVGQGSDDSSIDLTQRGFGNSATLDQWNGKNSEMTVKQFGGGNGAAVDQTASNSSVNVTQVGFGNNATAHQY
Structure (SMILES),"remaining activity at 25 µM [1, 3]","remaining activity at 25 µM [1, 4]","remaining activity at 100 µM [1, 5]","remaining activity at 100 µM [1, 6]","IC50 [2, 7]","IC50 [2, 8]","remaining activity at 25 µM [1, 9]","remaining activity at 25 µM [1, 10]","remaining activity at 100 µM [1, 11]","remaining activity at 100 µM [1, 12]","IC50 [2, 13]"
"CN(C)Cc1c(Cc2cccc3ccccc23)c(-c2cccc(C(F)(F)F)c2)c2n(c1=O)C(C(=O)O)CS2(=O)=O (stereo not shown) [Compound 083, 6-((dimethylamino)methyl)-7-(naphthalen-1-ylmethyl)-5-oxo-8-(3-(trifluoromethyl)phenyl)-2,3-dihydro-5H-thiazolo[3,2-a]pyridine-3-carboxylic acid 1,1-dioxide]",> 60%,102%,> 60%,80%,> 10 µM,14.6 µM,,,,,
"CCc1c(Cc2cccc3ccccc23)c(-c2cccc(C(F)(F)F)c2)c2n(c1=O)C(C(=O)O)CN(C(C)C)S2(=O)=O (stereo not shown) [Compound 115, 7-ethyl-2-isopropyl-8-(naphthalen-1-ylmethyl)-6-oxo-9-(3-(trifluoromethyl)phenyl)-3,4-dihydro-2H,6H-pyrido[1,2-e][1,2,5]thiadiazine-4-carboxylic acid 1,1-dioxide]",31 to 60%,35%,11 to 31%,23%,4.6 to 10 µM,7.2 µM,,,,,
"O=C(O)C1CN(Cc2ccccc2)c2c(-c3cccc(C(F)(F)F)c3)c(Cc3cccc4cccnc34)c(Cl)c(=O)n21 (stereo not shown) [Compound 213, 1-benzyl-6-chloro-5-oxo-7-(quinolin-8-ylmethyl)-8-(3-(trifluoromethyl)phenyl)-1,2,3,5-tetrahydroimidazo[1,2-a]pyridine-3-carboxylic acid]",,,,,,9.1 µM,> 60%,72%,31 to 60%,44%,4.6 to 10 µM
"CN(C)Cc1c(Cc2cccc3ccccc23)c(-c2cccc(C(F)(F)F)c2)c2n(c1=O)C(C(=O)O)CN2Cc1ccccc1 (stereo not shown) [Compound 204, 1-benzyl-6-((dimethylamino)methyl)-7-(naphthalen-1-ylmethyl)-5-oxo-8-(3-(trifluoromethyl)phenyl)-1,2,3,5-tetrahydroimidazo[1,2-a]pyridine-3-carboxylic acid]",,,,,,1.9 µM,,,> 60%,71%,1.3 to 4.5 µM
"O=C(O)C1CN(CCCCO)S(=O)(=O)c2c(-c3cccc(C(F)(F)F)c3)c(Cc3cccc4ccccc34)cc(=O)n21 (stereo not shown) [Compound 085, 2-(4-hydroxybutyl)-8-(naphthalen-1-ylmethyl)-6-oxo-9-(3-(trifluoromethyl)phenyl)-3,4-dihydro-2H,6H-pyrido[1,2-e][1,2,5]thiadiazine-4-carboxylic acid 1,1-dioxide]",31 to 60%,52%,11 to 31%,18%,> 10 µM,15.3 µM,,,,,
"O=C(O)C1CNc2c(-c3cccc(C(F)(F)F)c3)c(C(F)(F)c3cccc4ccccc34)cc(=O)n21 (stereo not shown) [Compound 134, 7-(difluoro(naphthalen-1-yl)methyl)-5-oxo-8-(3-(trifluoromethyl)phenyl)-1,2,3,5-tetrahydroimidazo[1,2-a]pyridine-3-carboxylic acid]",,,,,,15.6 µM,> 60%,92%,> 60%,66%,> 10 µM
"Nc1c(Cc2cccc3ccccc23)c(-c2cccc(C(F)(F)F)c2)c2n(c1=O)C(C(=O)O)CN(CCCCCO)S2(=O)=O (stereo not shown) [Compound 100, 7-amino-2-(5-hydroxypentyl)-8-(naphthalen-1-ylmethyl)-6-oxo-9-(3-(trifluoromethyl)phenyl)-3,4-dihydro-2H,6H-pyrido[1,2-e][1,2,5]thiadiazine-4-carboxylic acid 1,1-dioxide]",31 to 60%,41%,31 to 60%,31%,> 10 µM,14.5 µM,,,,,
"O=C(O)c1c(Cc2ccccc2)sc2c(-c3cccc(C(F)(F)F)c3)c(Cc3cccc4ccccc34)cc(=O)n12 [Compound 060, 2-benzyl-7-(naphthalen-1-ylmethyl)-5-oxo-8-(3-(trifluoromethyl)phenyl)-5H-thiazolo[3,2-a]pyridine-3-carboxylic acid]",> 60%,91%,> 60%,98%,1.3 to 4.5 µM,1.4 µM,,,,,
"Nc1c(Cc2cccc3ccccc23)c(-c2cccc(C(F)(F)F)c2)c2n(c1=O)C(C(=O)O)CN(CCO)S2(=O)=O (stereo not shown) [Compound 098, 7-amino-2-(2-hydroxyethyl)-8-(naphthalen-1-ylmethyl)-6-oxo-9-(3-(trifluoromethyl)phenyl)-3,4-dihydro-2H,6H-pyrido[1,2-e][1,2,5]thiadiazine-4-carboxylic acid 1,1-dioxide]",31 to 60%,60%,31 to 60%,33%,> 10 µM,20.9 µM,,,,,
"CN1CC(C(=O)O)n2c(c(-c3cccc(C(F)(F)F)c3)c(Cc3cccc4ccccc34)c(CO)c2=O)S1(=O)=O (stereo not shown) [Compound 077, 7-(hydroxymethyl)-2-methyl-8-(naphthalen-1-ylmethyl)-6-oxo-9-(3-(trifluoromethyl)phenyl)-3,4-dihydro-2H,6H-pyrido[1,2-e][1,2,5]thiadiazine-4-carboxylic acid 1,1-dioxide]",> 60%,97%,> 60%,87%,> 10 µM,51.6 µM,,,,,
"O=C(O)C1CN(Cc2ccccc2)c2c(-c3ccc(Br)cc3)c(Cc3cccc4ccccc34)c(Cl)c(=O)n21 (stereo not shown) [Compound 201, 1-benzyl-8-(4-bromophenyl)-6-chloro-7-(naphthalen-1-ylmethyl)-5-oxo-1,2,3,5-tetrahydroimidazo[1,2-a]pyridine-3-carboxylic acid]",,,,,,1.8 µM,> 60%,70%,31 to 60%,35%,1.3 to 4.5 µM
"CN1CC(C(=O)O)n2c(c(-c3cccc(C(F)(F)F)c3)c(Cc3cccc4ccccc34)c(NC3CCNCC3)c2=O)S1(=O)=O (stereo not shown) [Compound 091, 2-methyl-8-(naphthalen-1-ylmethyl)-6-oxo-7-(piperidin-4-ylamino)-9-(3-(trifluoromethyl)phenyl)-3,4-dihydro-2H,6H-pyrido[1,2-e][1,2,5]thiadiazine-4-carboxylic acid 1,1-dioxide]",> 60%,90%,> 60%,65%,4.6 to 10 µM,5.6 µM,,,,,
"O=C(O)C1CNS(=O)(=O)c2c(-c3cccc(C(F)(F)F)c3)c(C(F)(F)c3cccc4ccccc34)cc(=O)n21 (stereo not shown) [Compound 137, 8-(difluoro(naphthalen-1-yl)methyl)-6-oxo-9-(3-(trifluoromethyl)phenyl)-3,4-dihydro-2H,6H-pyrido[1,2-e][1,2,5]thiadiazine-4-carboxylic acid 1,1-dioxide]",,,,,,2.2 µM,> 60%,81%,31 to 60%,50%,1.3 to 4.5 µM
"CCCN1CC(C(=O)O)n2c(c(-c3cccc(C(F)(F)F)c3)c(Cc3cccc4ccccc34)c(NCC3CCCC3)c2=O)S1(=O)=O (stereo not shown) [Compound 128, 7-((cyclopentylmethyl)amino)-8-(naphthalen-1-ylmethyl)-6-oxo-2-propyl-9-(3-(trifluoromethyl)phenyl)-3,4-dihydro-2H,6H-pyrido[1,2-e][1,2,5]thiadiazine-4-carboxylic acid 1,1-dioxide]",11 to 31%,29%,11 to 31%,28%,1.3 to 4.5 µM,2.2 µM,,,,,

# Source: patent US20230131899A1, “INHIBITORS OF MICROBIALLY INDUCED AMYLOID” (Axial Therapeutics, Inc., priority 2020, published 2023)
